pIC50: −log10 of the molar value.
Legend:
NaV1.3 = target: T1, NaV1.3 (Homo sapiens, UniProt Q9NY46); test: VIPR optical membrane potential assay with electrical stimulation, NaV1.3; assay type: cell-based; conditions: Table 9, NaV 1.3 receptors
T1 construct: expressed in transfected cells; host or cells: HEK293
Experimental: (§1) Antagonist properties of test compounds were assessed as follows. Cells expressing the NaV of interest were placed into microtiter plates. After an incubation period, the cells were stained with fluorescent dyes sensitive to the transmembrane potential. The test compounds were added to the microtiter plate. The cells were stimulated with either chemical or electrical means to evoke a NaV dependent membrane potential change from unblocked channels, which was detected and measured with trans-membrane potential-sensitive dyes. Antagonists were detected as a decreased membrane potential response to the stimulus.
(§2) VIPR® Optical Membrane Potential Assay Method with Electrical Stimulation
The following is an example of how NaV1.3 inhibition activity is measured using the optical membrane potential method#2. Other subtypes are performed in an analogous mode in a cell line expressing the NaV of interest.
HEK293 cells stably expressing NaV1.3 are plated into 96-well microtiter plates. After an appropriate incubation period, the cells are stained with the voltage sensitive dyes CC2-DMPE/DiSBAC2(3) as follows.
(§3) 2X CC2-DMPE=20 μM CC2-DMPE: 10 mM CC2-DMPE is vortexed with an equivalent volume of 10% pluronic, followed by vortexing in required amount of HBSS containing 10 mM HEPES. Each cell plate will require 5 mL of 2×CC2-DMPE. 50 μL of 2×CC2-DMPE is added to wells containing washed cells, resulting in a 10 μM final staining concentration. The cells are stained for 30 minutes in the dark at RT.
2X DISBAC2(3) with ABSC1=6 μM DISBAC2(3) and 1 mM ABSC1: The required amount of 10 mM DISBAC2(3) is added to a 50 ml conical tube and mixed with 1 μL 10% pluronic for each mL of solution to be made and vortexed together. Then HBSS/HEPES is added to make up 2× solution. Finally, the ABSC1 is added.
The 2X DiSBAC2(3) solution can be used to solvate compound plates. Note that compound plates are made at 2× drug concentration. Wash stained plate again, leaving residual volume of 50 Add 50 μL/well of the 2X DiSBAC2(3) w/ABSC1. Stain for 30 minutes in the dark at RT.
(§4) The instrument comprises a microtiter plate handler, an optical system for exciting the coumarin dye while simultaneously recording the coumarin and oxonol emissions, a waveform generator, a current- or voltage-controlled amplifier, and a device for inserting electrodes in well. Under integrated computer control, this instrument passes user-programmed electrical stimulus protocols to cells within the wells of the microtiter plate.
• 1. Insert or use electrodes into each well to be assayed. • 2. Use the current-controlled amplifier to deliver stimulation wave pulses for 3 s. Two seconds of pre-stimulus recording are performed to obtain the un-stimulated intensities. Five seconds of post-stimulation recording are performed to examine the relaxation to the resting state. Data Analysis
(§5) Data are analyzed and reported as normalized ratios of background-subtracted emission intensities measured in the 460 nm and 580 nm channels. Background intensities are then subtracted from each assay channel. Background intensities are obtained by measuring the emission intensities during the same time periods from identically treated assay wells in which there are no cells. The response as a function of time is then reported as the ratios obtained using the following formula: […]
(§6) The data is further reduced by calculating the initial (Ri) and final (Rf) ratios. These are the average ratio values during part or all of the pre-stimulation period, and during sample points during the stimulation period. The response to the stimulus R=Rf/Ri is then calculated.
Control responses are obtained by performing assays in the presence of a compound with the desired properties (positive control), such as tetracaine, and in the absence of pharmacological agents (negative control). Responses to the negative (N) and positive (P) controls are calculated as above. The compound antagonist activity A is defined as: […]

CaV2.2 = target: T2, CaV2.2 (Homo sapiens, UniProt Q00975); test: VIPR optical membrane potential assay with electrical stimulation, CaV2.2; assay type: cell-based; conditions: Table 9, CaV 2.2 receptors
T2 construct: expressed in transfected cells; host or cells: HEK293
Experimental: A. Optical Methods for Assaying CaV Inhibition Properties of Compounds:
as §1, with “CaV” for “NaV”, “with” for “with either chemical or”
as §2
The following is an example of how CaV2.2 inhibition activity is measured using the optical membrane potential method. Other subtypes are performed in an analogous mode in a cell line expressing the CaV of interest.
HEK293 cells stably expressing CaV2.2 are plated into 96-well microtiter plates. After an appropriate incubation period, the cells are stained with the voltage sensitive dyes CC2-DMPE/DiSBAC2(3) as follows.
as §3, with “Pluronic,” for “pluronic,”
Vortex in required amount of Bath X with beta-cyclodextrin. Each 96 well cell plate will require 5 ml of 2XCC2DMPE. Wash plate with ELx405 with Bath X, leaving a residual volume of 50 μL/well. Add 50 μL of 2XCC2DMPE & […] to each well. Stain for 30 minutes in the dark at RT.
Allow solution to sit for 10 minutes. Slowly mix in 370 mM BaCl2. This solution can be used to solvate compound plates. Note that compound plates are made at 1.5× drug concentration and not the usual 2X. Wash CC2 stained plate, again, leaving residual volume of 50 μL. Add 100 uL/well of the AY17 solution. Stain for 15 minutes in the dark at RT. Run plate on the optical reader.
as §4
Insert or use electrodes into each well to be assayed.
Use the current-controlled amplifier to deliver stimulation wave pulses for 3-5 s. Two seconds of pre-stimulus recording are performed to obtain the un-stimulated intensities. Five seconds of post-stimulation recording are performed to examine the relaxation to the resting state.
as §5, §6
Control responses are obtained by performing assays in the presence of a compound with the desired properties (positive control), such as mibefradil, and in the absence of pharmacological agents (negative control).

T1 sequence (Q9NY46 whole entry): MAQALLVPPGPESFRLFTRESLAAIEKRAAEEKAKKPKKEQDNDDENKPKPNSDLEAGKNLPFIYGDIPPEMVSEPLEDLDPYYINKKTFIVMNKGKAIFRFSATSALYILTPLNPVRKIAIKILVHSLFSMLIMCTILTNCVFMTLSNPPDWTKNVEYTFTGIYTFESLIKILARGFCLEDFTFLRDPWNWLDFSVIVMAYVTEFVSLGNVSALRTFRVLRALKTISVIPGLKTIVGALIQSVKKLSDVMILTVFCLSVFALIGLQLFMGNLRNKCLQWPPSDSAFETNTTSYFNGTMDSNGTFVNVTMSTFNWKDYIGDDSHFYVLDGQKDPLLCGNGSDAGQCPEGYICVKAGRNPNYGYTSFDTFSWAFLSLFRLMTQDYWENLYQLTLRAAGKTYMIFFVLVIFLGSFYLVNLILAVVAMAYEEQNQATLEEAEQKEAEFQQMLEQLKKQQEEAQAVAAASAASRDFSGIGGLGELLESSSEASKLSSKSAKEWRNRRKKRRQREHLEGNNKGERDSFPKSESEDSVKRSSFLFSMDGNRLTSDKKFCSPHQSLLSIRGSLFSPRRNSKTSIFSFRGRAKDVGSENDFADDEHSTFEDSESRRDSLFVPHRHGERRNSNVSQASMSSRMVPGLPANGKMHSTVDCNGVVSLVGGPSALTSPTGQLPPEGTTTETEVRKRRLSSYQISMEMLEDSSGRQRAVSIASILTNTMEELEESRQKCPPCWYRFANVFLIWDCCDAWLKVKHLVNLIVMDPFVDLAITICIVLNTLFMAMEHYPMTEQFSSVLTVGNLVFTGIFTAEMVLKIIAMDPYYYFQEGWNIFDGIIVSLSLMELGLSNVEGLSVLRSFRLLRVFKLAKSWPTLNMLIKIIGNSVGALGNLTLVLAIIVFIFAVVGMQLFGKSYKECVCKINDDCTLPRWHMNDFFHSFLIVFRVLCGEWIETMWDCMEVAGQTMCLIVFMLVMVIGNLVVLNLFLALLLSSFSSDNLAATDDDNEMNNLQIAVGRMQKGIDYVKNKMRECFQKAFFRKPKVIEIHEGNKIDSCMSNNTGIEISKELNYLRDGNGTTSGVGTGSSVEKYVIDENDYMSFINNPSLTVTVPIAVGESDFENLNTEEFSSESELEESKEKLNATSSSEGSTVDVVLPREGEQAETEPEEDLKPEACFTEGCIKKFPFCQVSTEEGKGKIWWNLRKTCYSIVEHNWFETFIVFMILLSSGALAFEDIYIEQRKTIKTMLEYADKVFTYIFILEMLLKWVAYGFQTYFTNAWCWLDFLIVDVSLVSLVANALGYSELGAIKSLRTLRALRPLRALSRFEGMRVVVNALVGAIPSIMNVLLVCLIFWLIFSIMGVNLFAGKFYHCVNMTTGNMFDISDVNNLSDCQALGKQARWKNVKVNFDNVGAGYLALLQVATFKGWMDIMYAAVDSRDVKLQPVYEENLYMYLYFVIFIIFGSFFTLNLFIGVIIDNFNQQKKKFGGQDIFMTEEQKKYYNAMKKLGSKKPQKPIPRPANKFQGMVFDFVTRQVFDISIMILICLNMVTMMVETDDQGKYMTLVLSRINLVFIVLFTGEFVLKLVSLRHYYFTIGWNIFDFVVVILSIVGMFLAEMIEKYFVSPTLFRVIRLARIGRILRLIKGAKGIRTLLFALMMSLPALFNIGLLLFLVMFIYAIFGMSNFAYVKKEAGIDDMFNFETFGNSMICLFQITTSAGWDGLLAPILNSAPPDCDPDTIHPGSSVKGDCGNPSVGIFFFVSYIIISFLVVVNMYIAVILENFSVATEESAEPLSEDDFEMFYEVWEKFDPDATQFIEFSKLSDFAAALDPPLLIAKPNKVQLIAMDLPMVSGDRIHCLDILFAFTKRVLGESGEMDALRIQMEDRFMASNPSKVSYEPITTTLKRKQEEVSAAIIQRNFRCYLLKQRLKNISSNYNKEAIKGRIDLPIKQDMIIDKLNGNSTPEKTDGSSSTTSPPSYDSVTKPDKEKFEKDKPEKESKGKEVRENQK

Row | Structure (SMILES) | pIC50 (NaV1.3) | pIC50 (CaV2.2)
1 | COCCCNc1ncc(C(=O)NCC2CCCCC2)c(-c2cccc(C)c2)n1 [compound 330] | < 5.00 | < 5.00
2 | CCC1CCC(C)N(C(=O)c2cnc(NCCCOC)nc2-c2ccc(C#N)cc2)C1 (stereo not shown) [compound 294] | < 5.00 | < 5.00
3 | CC(C)N(Cc1ccccc1)C(=O)c1cnc(NCC2CC2)nc1-c1ccccc1F [compound 277] | < 5.00 | 5.00 to 5.70
4 | CCN(Cc1cccc(C)c1)C(=O)c1cnc(NCC2CC2)nc1-c1ccccc1F [compound 209] | < 5.00 | < 5.00
5 | CC1CCN(C(=O)c2cnc(N3CCOCC3)nc2-c2ccccc2F)CC1 [compound 337] | < 5.00 | < 5.00
6 | COCCCNc1ncc(C(=O)N2CCCCC2)c(-c2cccc(C)c2)n1 [compound 274] | < 5.00 | < 5.00
7 | O=C(c1cnc(N2CCOCC2)nc1-c1ccc(-c2ccccc2)cc1)N1CCCCC1 [compound 229] | < 5.00 | < 5.00
8 | CC(=O)N1CCN(c2ncc(C(=O)N3CCC(C)CC3)c(-c3ccc(-c4ccccc4)cc3)n2)CC1 [compound 334] | < 5.00 | 5.00 to 5.70
9 | COc1cccc(OC)c1CNc1ncc(C(=O)N(C)C2CCCCC2)c(-c2ccc(C#N)cc2)n1 [compound 280] | < 5.00 | < 5.00
10 | CCN(Cc1ccccc1)C(=O)c1cnc(NCc2ccc(C)o2)nc1-c1ccc(C#N)cc1 [compound 244] | < 5.00 | < 5.00
11 | COc1ccc(CCNc2ncc(C(=O)N3CCC(C)CC3)c(-c3ccc(C#N)cc3)n2)cc1 [compound 316] | < 5.00 | < 5.00
12 | COCCNc1ncc(C(=O)N2CC(C)CC(C)C2)c(-c2cccc(C)c2)n1 (stereo not shown) [compound 325] | < 5.00 | < 5.00
13 | CCC1CCC(C)N(C(=O)c2cnc(N(C)CC)nc2-c2ccccc2F)C1 (stereo not shown) [compound 282] | < 5.00 | 5.00 to 5.70
14 | CCCCNC(=O)c1cnc(NC2CCCC2)nc1-c1cccc(C)c1 [compound 218] | < 5.00 | < 5.00
15 | CCCCNC(=O)c1cnc(N(C)CCc2ccc(OC)c(OC)c2)nc1-c1ccc(C#N)cc1 [compound 299] | < 5.00 | < 5.00
16 | CCN(C)c1ncc(C(=O)N2CC(C)CC(C)C2)c(-c2ccc(C#N)cc2)n1 (stereo not shown) [compound 347] | < 5.00 | < 5.00
17 | CCCCNC(=O)c1cnc(NCCCOC)nc1-c1cccc(C)c1 [compound 332] | < 5.00 | < 5.00
18 | CCC(C)Nc1ncc(C(=O)N(C)CC)c(-c2cccc(C)c2)n1 (stereo not shown) [compound 273] | < 5.00 | < 5.00
19 | CC(C)CN(C)C(=O)c1cnc(N2CCCCC2)nc1-c1ccc(C#N)cc1 [compound 322] | < 5.00 | < 5.00
20 | COCCCNC(=O)c1cnc(N2CCOCC2)nc1-c1cccc(C)c1 [compound 307] | < 5.00 | < 5.00
21 | CCN(Cc1ccccc1)C(=O)c1cnc(NCc2ccc3c(c2)OCO3)nc1-c1ccccc1F [compound 222] | < 5.00 | < 5.00

Row | Structure (SMILES) | pIC50 (NaV1.3) | pIC50 (CaV2.2)
22 | COCCCNC(=O)c1cnc(NCC2CC2)nc1-c1cccc(C)c1 [compound 257] | < 5.00 | < 5.00
23 | CCC(C)NC(=O)c1cnc(NC2CC3CC(C2C)C3(C)C)nc1-c1ccc(C#N)cc1 (stereo not shown) [compound 228] | < 5.00 | < 5.00
24 | COCCNc1ncc(C(=O)N2CCOCC2)c(-c2cccc(C)c2)n1 [compound 321] | < 5.00 | < 5.00
25 | CCN(Cc1cccc(C)c1)C(=O)c1cnc(N2CCOCC2)nc1-c1ccc(C#N)cc1 [compound 247] | < 5.00 | < 5.00
26 | CC(=O)N1CCN(c2ncc(C(=O)N3CCOCC3)c(-c3cccc(C)c3)n2)CC1 [compound 226] | < 5.00 | < 5.00
27 | O=C(c1cnc(NCc2cccc(C(F)(F)F)c2)nc1-c1ccccc1F)N1CCOCC1 [compound 236] | < 5.00 | < 5.00
28 | Cc1cccc(-c2nc(NCC3CCCCC3)ncc2C(=O)N2CCOCC2)c1 [compound 306] | < 5.00 | < 5.00
29 | CCC(C)NC(=O)c1cnc(NCCc2ccc(Cl)cc2)nc1-c1ccccc1F (stereo not shown) [compound 305] | < 5.00 | < 5.00
30 | CC1CC(C)CN(C(=O)c2cnc(N3CCOCC3)nc2-c2ccc(C#N)cc2)C1 (stereo not shown) [compound 333] | < 5.00 | < 5.00
31 | COc1ccc(CCN(C)c2ncc(C(=O)N3CCCC3)c(-c3ccc(C#N)cc3)n2)cc1OC [compound 292] | < 5.00 | < 5.00
32 | N#Cc1ccc(-c2nc(NCc3ccc4c(c3)OCO4)ncc2C(=O)N2CCCC2)cc1 [compound 260] | < 5.00 | < 5.00
33 | CCN(C)c1ncc(C(=O)N2CCC(C)CC2)c(-c2cccc(C)c2)n1 [compound 343] | < 5.00 | < 5.00
34 | CC(=O)NCCNc1ncc(C(=O)N(Cc2ccccc2)C(C)C)c(-c2ccc(C#N)cc2)n1 [compound 319] | < 5.00 | < 5.00
35 | Cc1cccc(-c2nc(NCc3ccc4c(c3)OCO4)ncc2C(=O)N2CCOCC2)c1 [compound 264] | < 5.00 | < 5.00
36 | Cc1cccc(-c2nc(NC3CC4CC(C3C)C4(C)C)ncc2C(=O)N2CCOCC2)c1 (stereo not shown) [compound 288] | < 5.00 | < 5.00
37 | COCCNc1ncc(C(=O)N(Cc2ccccc2)C(C)C)c(-c2ccccc2F)n1 [compound 300] | < 5.00 | < 5.00
38 | CCN(Cc1cccc(C)c1)C(=O)c1cnc(NCCCOC)nc1-c1ccc(C#N)cc1 [compound 265] | < 5.00 | < 5.00
39 | CCN(Cc1cccc(C)c1)C(=O)c1cnc(NC2CCCC2)nc1-c1ccc(C#N)cc1 [compound 239] | < 5.00 | 5.00 to 5.70
40 | CCN(C)C(=O)c1cnc(N2CCOCC2)nc1-c1ccccc1F [compound 317] | < 5.00 | < 5.00
41 | CCCCNc1ncc(C(=O)N2CCC(C)CC2)c(-c2ccc(C#N)cc2)n1 [compound 344] | < 5.00 | < 5.00

Source: patent US8546414B2, “Ion channel modulators and methods of use” (Vertex Pharmaceuticals Incorporated, priority 2004, dated 2013)
